Data set [1] deals with T1, human Cav1.2/β2a/α2δ1 calcium channel (Homo sapiens, UniProt Q13936).
T1 construct: assay run at Metrion Biosciences Ltd; host or cells: HEK
As to the kind of experiment: hCav1.2 automated patch clamp. The format is cell-based. The following applies: read-out: CaV IC50. The protocol: 1000 rcf for 2 min and resuspended in CHO-S-SFM II (Gibco) at a density of 3 million cells […]
Ionic currents were evaluated in the whole-cell configuration using the Qube384 automated planar patch clamp platform (Sophion Bioscience A/S, Ballerup, Denmark). QChip 384X plates, containing 10 patch clamp holes per well, were used to maximize success rate, which was routinely > 95%. For hERG experiments, the external solution was composed of (in mM): 140 NaCl, 2 KCl, 2 CaCl2, 1 MgCl2, 10 HEPES, 5 Glucose, pH 7.4, 350 mOsM. The internal solution contained (in mM): 20 KCl, 10 EGTA, 10 HEPES, 120 KF, pH 7.2, 335 mOsM. The hERG current was elicited from a holding potential of -80 mV by a voltage step to +40 mV for 500 ms, followed by a repolarizing ramp to -80 mV at -0.6 mV/ms. […] Peak hERG current was measured during the ramp. […]
This was followed by the addition of increasing concentrations of test compound, with each exposure lasting 5 minutes. Patch clamp data were analyzed using Analyzer Software 6.4.72 (Sophion Bioscience A/S, Ballerup, Denmark). Current amplitudes were determined by averaging the last 4 currents under each test condition. […]
Hz, and hCav1.2 current was measured as the peak current at 0 mV. […]
exposure lasting 5 minutes. Patch clamp data were analyzed using Analyzer Software 6.4.72. Current amplitudes were determined by averaging the last 4 currents under each test condition. […]

Data set [2] can be described thus: Media binding for in vitro cell systems. Format: in vitro ADME.
Another data set addresses hCoV-OC43_PLpro2 (Human coronavirus OC43, UniProt P0C6X6). Nature of the data set: biochemical. Details: species or system OC43-CoV.
Another data set concerns Human Chymotrypsin. The format is biochemical.
For another data set, the target named is T2, Human Caspase 2 (Homo sapiens, UniProt P42575).
T2 construct: assay run at Reaction Biology Corporation
Nature of the data set: biochemical.

A further data set addresses T3, Human Cathepsin D (Homo sapiens, UniProt P07339).
T3 construct: assay run at Reaction Biology Corporation
As to the kind of experiment: biochemical.

Another data set addresses T4, Adenosine A2a (Homo sapiens, UniProt P29274).
T4 construct: purchased Eurofins Cerep
As to the kind of experiment: CEREP functional agonism. Format: cell-based. The conditions noted are these: 30 µM.

In data set [3] the target is T5, Angiotensin Converting Enzyme (Homo sapiens, UniProt P12821).
T5 construct: purchased Eurofins Cerep
Nature of the data set: CEREP enzyme inhibition. The format is biochemical.

For a further data set, the target named is T6, EGFR Kinase (Homo sapiens, UniProt P00533).
T6 construct: purchased Eurofins Cerep
As to the kind of experiment: CEREP kinase inhibition. Format: biochemical.

In data set [4] the target is T7, Norepinephrine Transporter (Homo sapiens, UniProt P23975).
T7 construct: purchased Eurofins Cerep
Nature of the data set: CEREP transporters-binding.

Another data set relates to GABA Transporter. As to the kind of experiment: CEREP transporters-binding. The conditions noted are these: 30 µM.
Data set [5] has as its target T8, Glucocorticoid Receptor (Binding) (Homo sapiens, UniProt P04150).
T8 construct: purchased Eurofins Cerep
As to the kind of experiment: CEREP NHR-binding.

Data set [6] can be described thus: in vitro. The following applies: male, cynomolgus monkey, plasma.
Data set [7] in a line: in vitro. The following applies: both, human, plasma.
The target in the next data set is CYP3A4 (Homo sapiens, UniProt P08684). As to the kind of experiment: biochemical.
The nature of data set [8]: Metabolic stability in cryopreserved human hepatocytes.
The nature of data set [9]: In vitro genetic toxicity (bacterial reverse mutation assay). The following applies: in vitro genetic toxicity studies; listed as PF-07957472.

hCoV-OC43_PLpro2, sequence (P0C6X6 1631-1892): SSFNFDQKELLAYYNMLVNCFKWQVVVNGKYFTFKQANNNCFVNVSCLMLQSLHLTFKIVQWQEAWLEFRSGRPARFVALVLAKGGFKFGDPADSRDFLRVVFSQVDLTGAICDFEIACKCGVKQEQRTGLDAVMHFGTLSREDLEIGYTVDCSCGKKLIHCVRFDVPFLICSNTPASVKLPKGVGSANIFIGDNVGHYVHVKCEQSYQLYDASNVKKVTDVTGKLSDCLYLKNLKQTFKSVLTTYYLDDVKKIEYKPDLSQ
CYP3A4, sequence (P08684 whole entry): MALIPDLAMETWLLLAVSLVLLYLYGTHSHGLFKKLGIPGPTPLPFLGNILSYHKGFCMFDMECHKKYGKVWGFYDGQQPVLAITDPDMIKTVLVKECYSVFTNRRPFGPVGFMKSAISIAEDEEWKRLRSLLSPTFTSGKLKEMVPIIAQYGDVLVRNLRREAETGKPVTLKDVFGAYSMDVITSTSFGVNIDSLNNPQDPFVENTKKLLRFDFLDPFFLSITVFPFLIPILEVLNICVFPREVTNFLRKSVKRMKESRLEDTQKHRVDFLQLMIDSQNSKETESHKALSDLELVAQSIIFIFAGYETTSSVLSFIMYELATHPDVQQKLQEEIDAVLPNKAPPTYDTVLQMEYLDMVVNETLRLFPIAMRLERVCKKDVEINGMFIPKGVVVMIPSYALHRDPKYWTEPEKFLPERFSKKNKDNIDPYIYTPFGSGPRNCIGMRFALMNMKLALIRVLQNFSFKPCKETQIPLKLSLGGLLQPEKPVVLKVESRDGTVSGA
T3 sequence (P07339 65-412): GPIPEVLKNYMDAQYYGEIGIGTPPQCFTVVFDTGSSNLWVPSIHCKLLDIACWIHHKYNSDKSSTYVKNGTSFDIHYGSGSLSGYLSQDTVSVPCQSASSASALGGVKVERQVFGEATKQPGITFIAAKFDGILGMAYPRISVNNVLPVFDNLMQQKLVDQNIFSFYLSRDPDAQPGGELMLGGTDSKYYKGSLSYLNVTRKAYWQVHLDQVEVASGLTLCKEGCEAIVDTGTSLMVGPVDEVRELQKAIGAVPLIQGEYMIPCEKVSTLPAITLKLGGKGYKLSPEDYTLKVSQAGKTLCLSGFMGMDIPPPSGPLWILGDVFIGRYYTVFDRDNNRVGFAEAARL
T5 sequence (P12821 30-1306): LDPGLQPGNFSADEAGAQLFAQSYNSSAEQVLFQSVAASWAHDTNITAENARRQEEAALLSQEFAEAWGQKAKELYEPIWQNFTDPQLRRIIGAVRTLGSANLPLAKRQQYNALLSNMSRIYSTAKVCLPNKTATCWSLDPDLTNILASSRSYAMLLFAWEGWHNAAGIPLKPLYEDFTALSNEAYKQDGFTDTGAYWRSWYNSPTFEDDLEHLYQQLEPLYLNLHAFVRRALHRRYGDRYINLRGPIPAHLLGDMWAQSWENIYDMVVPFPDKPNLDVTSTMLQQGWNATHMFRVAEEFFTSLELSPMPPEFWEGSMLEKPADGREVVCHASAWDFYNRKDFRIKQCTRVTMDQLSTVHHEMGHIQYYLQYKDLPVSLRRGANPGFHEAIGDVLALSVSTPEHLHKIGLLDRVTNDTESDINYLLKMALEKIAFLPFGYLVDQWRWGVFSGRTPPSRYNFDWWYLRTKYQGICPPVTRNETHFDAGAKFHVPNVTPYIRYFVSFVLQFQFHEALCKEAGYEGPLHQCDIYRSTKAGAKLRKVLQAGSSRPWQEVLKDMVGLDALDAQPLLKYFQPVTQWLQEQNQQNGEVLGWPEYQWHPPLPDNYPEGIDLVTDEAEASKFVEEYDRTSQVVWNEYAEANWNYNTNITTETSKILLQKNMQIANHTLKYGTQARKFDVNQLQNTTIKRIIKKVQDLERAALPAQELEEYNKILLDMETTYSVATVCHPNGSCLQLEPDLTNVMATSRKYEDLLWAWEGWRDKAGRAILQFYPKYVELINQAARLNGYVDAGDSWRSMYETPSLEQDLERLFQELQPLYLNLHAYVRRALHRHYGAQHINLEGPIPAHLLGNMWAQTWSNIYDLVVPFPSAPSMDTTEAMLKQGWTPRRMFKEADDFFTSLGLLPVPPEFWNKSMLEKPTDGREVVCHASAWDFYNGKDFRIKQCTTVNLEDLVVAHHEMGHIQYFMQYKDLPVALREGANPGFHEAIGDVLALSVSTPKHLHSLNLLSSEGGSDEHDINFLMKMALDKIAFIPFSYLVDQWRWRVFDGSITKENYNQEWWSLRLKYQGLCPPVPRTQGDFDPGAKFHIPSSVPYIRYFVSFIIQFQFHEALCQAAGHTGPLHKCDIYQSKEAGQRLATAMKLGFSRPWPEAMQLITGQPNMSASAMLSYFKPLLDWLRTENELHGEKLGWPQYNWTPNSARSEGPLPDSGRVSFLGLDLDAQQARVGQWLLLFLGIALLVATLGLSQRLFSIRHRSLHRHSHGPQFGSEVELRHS
T2 sequence (P42575 170-325 limits assumed): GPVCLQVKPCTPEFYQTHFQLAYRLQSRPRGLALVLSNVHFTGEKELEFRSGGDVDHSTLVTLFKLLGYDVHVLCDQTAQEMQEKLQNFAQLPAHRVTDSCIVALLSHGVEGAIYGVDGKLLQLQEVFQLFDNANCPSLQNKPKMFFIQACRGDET
T2 sequence (P42575 348-452 limits assumed): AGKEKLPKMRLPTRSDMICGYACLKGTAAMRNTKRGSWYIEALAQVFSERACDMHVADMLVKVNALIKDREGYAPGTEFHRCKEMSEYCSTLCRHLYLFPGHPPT
T8 sequence (P04150 whole entry): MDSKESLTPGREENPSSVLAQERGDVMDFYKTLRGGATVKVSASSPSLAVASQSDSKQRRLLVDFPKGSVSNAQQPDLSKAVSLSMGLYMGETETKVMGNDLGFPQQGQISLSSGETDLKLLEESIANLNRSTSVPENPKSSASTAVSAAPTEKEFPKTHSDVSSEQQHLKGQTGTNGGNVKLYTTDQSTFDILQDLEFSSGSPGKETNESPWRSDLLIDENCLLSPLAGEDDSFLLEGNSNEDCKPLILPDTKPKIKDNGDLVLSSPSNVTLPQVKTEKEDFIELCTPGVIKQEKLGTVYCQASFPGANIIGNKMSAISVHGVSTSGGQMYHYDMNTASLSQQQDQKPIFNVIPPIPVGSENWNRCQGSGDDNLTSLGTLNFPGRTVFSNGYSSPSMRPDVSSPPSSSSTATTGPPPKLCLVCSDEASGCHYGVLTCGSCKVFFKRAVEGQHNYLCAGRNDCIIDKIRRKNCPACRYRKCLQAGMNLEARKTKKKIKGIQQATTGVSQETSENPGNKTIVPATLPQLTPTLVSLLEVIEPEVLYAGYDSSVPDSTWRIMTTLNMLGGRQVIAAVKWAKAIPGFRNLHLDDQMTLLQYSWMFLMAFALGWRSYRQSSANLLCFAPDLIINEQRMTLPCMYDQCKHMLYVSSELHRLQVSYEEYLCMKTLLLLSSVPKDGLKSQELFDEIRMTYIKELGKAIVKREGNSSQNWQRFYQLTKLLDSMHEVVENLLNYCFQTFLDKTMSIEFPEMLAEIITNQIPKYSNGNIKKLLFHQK
T4 sequence (P29274 whole entry): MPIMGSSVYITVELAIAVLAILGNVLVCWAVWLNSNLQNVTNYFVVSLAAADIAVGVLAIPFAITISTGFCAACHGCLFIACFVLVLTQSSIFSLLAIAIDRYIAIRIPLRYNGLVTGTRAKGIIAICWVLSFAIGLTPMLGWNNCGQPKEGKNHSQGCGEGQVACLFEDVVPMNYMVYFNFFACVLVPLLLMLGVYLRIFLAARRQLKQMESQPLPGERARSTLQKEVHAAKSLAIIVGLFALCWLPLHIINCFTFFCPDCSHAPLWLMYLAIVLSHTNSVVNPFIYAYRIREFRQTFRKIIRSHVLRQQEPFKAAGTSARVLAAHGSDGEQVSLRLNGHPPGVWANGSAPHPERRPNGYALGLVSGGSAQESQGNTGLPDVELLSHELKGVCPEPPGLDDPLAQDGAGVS
T7 sequence (P23975 whole entry): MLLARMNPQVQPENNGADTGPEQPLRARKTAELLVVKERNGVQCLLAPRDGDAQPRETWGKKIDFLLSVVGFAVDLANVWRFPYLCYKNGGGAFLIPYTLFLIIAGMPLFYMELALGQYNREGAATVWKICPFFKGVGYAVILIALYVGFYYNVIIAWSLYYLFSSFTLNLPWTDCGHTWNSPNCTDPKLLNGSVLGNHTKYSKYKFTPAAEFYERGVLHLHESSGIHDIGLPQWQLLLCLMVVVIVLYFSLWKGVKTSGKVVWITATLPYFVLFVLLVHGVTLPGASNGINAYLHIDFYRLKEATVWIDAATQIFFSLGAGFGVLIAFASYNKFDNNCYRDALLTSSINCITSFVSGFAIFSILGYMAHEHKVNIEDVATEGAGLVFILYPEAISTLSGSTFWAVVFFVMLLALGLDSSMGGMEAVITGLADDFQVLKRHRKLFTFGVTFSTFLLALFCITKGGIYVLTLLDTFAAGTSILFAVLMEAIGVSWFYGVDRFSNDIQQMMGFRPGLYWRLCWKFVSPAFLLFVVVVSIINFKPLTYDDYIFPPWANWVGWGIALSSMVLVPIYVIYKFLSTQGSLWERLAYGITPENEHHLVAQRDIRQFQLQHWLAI

Take `Cc1ccc(N2CCN(C)CC2)cc1C(=O)NC1(c2cc(-c3cnn(C)c3)nc3ccccc23)CC1` [Compound 4]: the IC50 (commonly the concentration that gives 50% inhibition) in data set [1] is above 100 µM; with Human Chymotrypsin it was above 100 µM; on Human Caspase 2 it was above 100 µM; on Human Cathepsin D it was above 100 µM; against CYP3A4, above 30 µM. For the same molecule, the fraction unbound amounted to 0.749 in [2] (bovine, cell culture medium (2% HI-FBS in DMEM), media: 2% HI-FBS in DMEM, n = 4, read-out: Fu (CV)); 0.916 in [2] (dNHBE medium, read-out: fraction unbound in the dNHBE medium); 0.101 in “in vitro [6]”; 0.109 in “in vitro [7]”. Moreover, the Ki – broadly, the equilibrium dissociation constant of an inhibitor or competing ligand from its target – at hCoV-OC43_PLpro2 was above 10 µM. In addition, the “activity on OC43 PL^pro” value at hCoV-OC43_PLpro2 is “nearly inactive”. For the same molecule, the “% response” value on Adenosine A2a came out at 0%. In addition, the inhibition (in general, the relative decrease from the control value, in per cent) at 30 µM is 14% in [3], 9% against EGFR Kinase, -6% in data set [4] and 2% in [5]. In addition, the % inhibition (usually the drop in the measured response relative to a control, in per cent) in the data set with GABA Transporter is -4%. For the same molecule, the intrinsic metabolic clearance (hepatocyte CLint) – broadly, the rate of metabolic loss divided by the concentration – in data set [8] stood at 8.84 µL/min/1e6 cells. Also, the “In vitro genotoxicity screen” value in [9] was “not mutagenic or clastogenic”.

Source of the values: paper PMC11364104, “Discovery of SARS-CoV-2 papain-like protease (PL^pro) inhibitors with efficacy in a murine infection model” (Science Advances, 2024).
